Data as given in ChEMBL document CHEMBL1156824, “Physicochemical space for optimum oral bioavailability: contribution of human intestinal absorption and first-pass elimination” (J Med Chem, 2010).

Tests used:
Homo sapiens [1] = organism: Homo sapiens; experiment: Fraction escaping hepatic elimination in human; conditions: in vivo
Homo sapiens [2] = experiment: Oral bioavailability in human; conditions: in vivo
Homo sapiens [3] = organism: Homo sapiens; experiment: Fraction escaping gut-wall elimination in human; conditions: in vivo
Homo sapiens [4] = organism: Homo sapiens; experiment: Hepatic clearance in human; conditions: in vivo
Homo sapiens [5] = organism: Homo sapiens; experiment: Fraction absorbed in human; conditions: in vivo
clinical = conditions: human, in vivo
[6] = Volume of distribution at steady state in human; conditions: in vivo

Row | Structure (SMILES) | Fh (Homo sapiens [1]) | F_fraction (Homo sapiens [2]) | Fg (Homo sapiens [3]) | CL (Homo sapiens [4]) | Fa (Homo sapiens [5]) | CL renal (clinical) | Vd [6]
1 | Clc1ccc2nsnc2c1NC1=NCCN1 [TIZANIDINE] | 0.54 | 0.21 | 0.39 | 10.7 mL/min/kg | 1 | 0.3 mL/min/kg | 
2 | CN/C(=N/CCSCc1nc[nH]c1C)NC#N [CIMETIDINE] | 0.99 | 0.68 |  | 0.2 mL/min/kg | 0.68 |  | 
3 | Cc1nnc2n1-c1ccc(Cl)cc1C(c1ccccc1)=NC2 [ALPRAZOLAM] |  |  |  | 0.6 mL/min/kg |  | 0.1 mL/min/kg | 0.8 L/kg
4 | CN1C(C(=O)Nc2ccccn2)=C(O)c2sccc2S1(=O)=O [TENOXICAM] | 1 | 1 | 1 | 0.0297 mL/min/kg | 1 | 0.0003 mL/min/kg | 
5 | CNCCC=C1c2ccccc2CCc2ccccc21 [NORTRIPTYLINE] | 0.57 | 0.51 | 0.89 | 9.8 mL/min/kg | 1 |  | 
6 | Nc1ccc(S(=O)(=O)Nc2ncccn2)cc1 [SULFADIAZINE] | 0.99 | 0.85 | 1.01 | 0.2 mL/min/kg | 0.85 | 0.3 mL/min/kg | 
7 | O=C1NCC2(CCN(CCc3ccccc3)CC2)O1 [FENSPIRIDE] |  |  |  | 0.8 mL/min/kg |  | 1.8 mL/min/kg | 3 L/kg
8 | CCCCc1oc2ccccc2c1C(=O)c1cc(I)c(OCCN(CC)CC)c(I)c1 [AMIODARONE] | 0.92 |  | 0.71 |  | 1 |  | 
9 | CC1=C(C(=O)O)N2C(=O)[C@@H](NC(=O)[C@H](N)c3ccccc3)[C@H]2SC1 [CEPHALEXIN ANHYDROUS] |  |  | 0.91 |  |  |  | 
10 | CC(C(=O)O)c1ccc(C(=O)c2cccs2)cc1 (configuration not stated) [SUPROFEN] |  |  |  | 0.7 mL/min/kg |  | 0.0357 mL/min/kg | 0.04 L/kg
11 | CN1CCC[C@H]1c1cccnc1 [NICOTINE] | 0.35 | 0.3 | 0.86 | 15 mL/min/kg | 1 |  | 
12 | CC(C)NCC(O)COc1ccc(CCOCC2CC2)cc1 (configuration not stated) [BETAXOLOL] | 0.88 | 0.89 | 1.01 | 2.7 mL/min/kg | 1 |  | 
13 | Cc1cc(NS(=O)(=O)c2ccc(N)cc2)no1 [SULFAMETHOXAZOLE] | 0.99 |  | 1.01 |  | 1 |  | 
14 | Cc1ncc([N+](=O)[O-])n1CCO [METRONIDAZOLE] |  |  |  | 0.7 mL/min/kg |  | 0.2 mL/min/kg | 0.4 L/kg
15 | Nc1nc(O)c2ncn(COC(CO)CO)c2n1 [GANCICLOVIR] |  | 0.09 |  | 0.5 mL/min/kg |  |  | 1 L/kg
16 | CC(C)NCC(O)COc1ccc(CC(N)=O)cc1 (configuration not stated) [ATENOLOL] | 1 |  | 1 |  |  |  | 
17 | O=C(O)c1cc(/N=N/c2ccc(O)c(C(=O)O)c2)ccc1O [OLSALAZINE] |  |  |  | 0.9 mL/min/kg |  | 0.3 mL/min/kg | 0.07 L/kg
18 | O=C(O)c1cn(C2CC2)c2cc(N3CCNCC3)c(F)cc2c1=O [CIPROFLOXACIN] | 0.94 |  | 0.98 |  | 0.75 |  | 
19 | CN1[C@@H]2CC[C@H]1C[C@@H](OC(=O)C(CO)c1ccccc1)C2 (some centres not stated) [ATROPINE] | 0.86 |  | 0.59 |  | 0.98 |  | 
20 | CN1[C@@H]2C[C@@H](OC(=O)[C@H](CO)c3ccccc3)C[C@H]1[C@@H]1O[C@@H]12 [SCOPOLAMINE] | 0.35 |  | 0.82 |  |  |  | 
21 | O=C1Cc2cc(CCN3CCN(c4nsc5ccccc45)CC3)c(Cl)cc2N1 [ZIPRASIDONE] |  |  |  | 5 mL/min/kg |  | 0.1 mL/min/kg | 1 L/kg
22 | COc1cc(Cc2cnc(N)nc2N)cc(OC)c1OC [TRIMETHOPRIM] | 0.95 | 0.76 | 0.83 |  | 0.97 |  | 
23 | CCN1CCCC1CNC(=O)c1cc(S(N)(=O)=O)ccc1OC (configuration not stated) [SULPIRIDE] |  | 0.27 |  | 0.1 mL/min/kg |  |  | 2.72 L/kg
